Source: patent publication US7776862B2, “Pyridyl and phenyl substituted piperazine-piperidines with CXCR3 antagonist activity” (Schering Corporation, priority 2005, dated 2010)

Biological target: T1, human CXCR3 (N-delta 4) (Homo sapiens, UniProt P49682)
T1 construct: CD8 leader; Flag tag; expressed in transfected cells; membranes used
T1 sequence (P49682 5-368 limits assumed): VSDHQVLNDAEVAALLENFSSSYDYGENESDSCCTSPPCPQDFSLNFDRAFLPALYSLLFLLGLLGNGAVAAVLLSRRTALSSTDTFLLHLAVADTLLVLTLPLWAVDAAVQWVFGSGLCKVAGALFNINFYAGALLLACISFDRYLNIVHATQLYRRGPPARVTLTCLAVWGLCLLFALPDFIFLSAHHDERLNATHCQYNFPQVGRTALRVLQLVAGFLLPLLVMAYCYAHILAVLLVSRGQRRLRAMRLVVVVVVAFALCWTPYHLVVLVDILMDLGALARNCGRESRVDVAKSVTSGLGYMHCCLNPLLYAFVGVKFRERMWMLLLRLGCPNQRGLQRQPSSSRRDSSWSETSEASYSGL
Assay: Human CXCR3 (N-delta 4) scintillation proximity assay (SPA), [125I] IP-10 binding
Details: IC50 rating; Ba/F3-hCXCR3 (N-delta 4) membranes, 25 pM [125I] IP-10
Outline: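 IP-10 and compound titrations added together. The receptor source was SPA beads bearing membranes from Ba/F3 cells transfected with human CXCR3 (N-delta 4) carrying a CD8 leader and Flag tag.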

IC50 [nM]	Compound
25 to 100	CC[C@H]1CN(c2ncc(CNC3=NCCN3)cc2Cl)CCN1C1CCN(Cc2ccc(Cl)cc2F)CC1 [compound 431]
> 100	CC(C)C[C@H]1CN(c2ncc(C(=O)NCc3ccc(F)c(F)c3)cc2Cl)CCN1C1CCN(Cc2ccc(Cl)cc2)CC1 [compound 199]
> 100	CC[C@H]1CN(c2ncc(C(=O)OC)cc2Cl)CCN1C1CCN(C(=O)c2ccc(Br)cc2)CC1 [compound 454]
25 to 100	O=C(NCc1ccc(F)cc1F)c1cnc(N2CCN(C3CCN(Cc4ccc(Cl)c(F)c4)CC3)CC2)c(Cl)c1 [compound 127]
> 100	O=C(NCC1CC1)c1cnc(N2CCN(C3CCN(Cc4ccc(Cl)cc4)CC3)CC2)c(Cl)c1 [compound 167]
> 100	CNC(=O)c1cnc(N2CCN(C3CCN(Cc4ccccc4Cl)CC3)[C@@H](C)C2)c(Cl)c1 [compound 349]
> 100	O=C(NCCOc1ccccc1)c1cnc(N2CCN(C3CCN(Cc4ccc(Cl)c(Cl)c4)CC3)CC2)c(Cl)c1 [compound 49]
25 to 100	O=C(NCc1ccc(F)c(Cl)c1)c1cnc(N2CCN(C3CCN(Cc4ccc([N+](=O)[O-])cc4)CC3)CC2)c(Cl)c1 [compound 158]
< 25	O=C(NCc1ccc(F)c(F)c1)c1cnc(N2CCN(C3CCN(Cc4ccc(Br)cc4)CC3)CC2)c(Br)c1 [compound 265]
> 100	N#Cc1ccc(CN2CCC(N3CCN(c4ncc(C(=O)NCc5cc(Cl)cc(Cl)c5)cc4Cl)CC3)CC2)cc1 [compound 40]
25 to 100	O=C(NCc1ccc(Br)cc1)c1cnc(N2CCN(C3CCN(Cc4ccc(F)cc4)CC3)CC2)c(Cl)c1 [compound 109]
< 25	CCNC(=O)c1cnc(N2CCN(C3CCN([C@H](C)c4ccc(Cl)cc4)CC3)[C@@H](C)C2)c(Cl)c1 [compound 231]
> 100	CC(c1ccc(C#N)cc1)N1CCC(N2CCN(c3ncc(C(=O)NCc4ccc(Cl)c(Cl)c4)cc3Cl)CC2)CC1 (stereo not shown) [compound 32]
> 100	N#Cc1ccc(C(=O)N2CCC(N3CCN(c4ncc(C(=O)NCCOc5ccccc5)cc4Cl)CC3)CC2)cc1 [compound 15]
< 25	CCNC(=O)c1cnc(N2CCN(C3CCN(Cc4ccc(Cl)cc4)CC3)[C@@H](C)C2)c(Cl)c1 [compound 227]
> 100	CNC(=O)c1cnc(N2CCN(C3CCN(Cc4ccc(Cl)cc4)CC3)[C@@H](CC(C)C)C2)c(Cl)c1 [compound 198]
< 25	CC[C@H]1CN(c2ncc(C(=O)NCCO)cc2Cl)CCN1C1CCN(C(CO)c2ccc(Cl)cc2)CC1 (stereo partly shown) [compound 257]
25 to 100	O=C(NCc1ccc(Cl)cc1)c1cnc(N2CCN(C3CCN(Cc4ccc(Cl)c(F)c4)CC3)CC2)c(Cl)c1 [compound 161]
25 to 100	O=C(NCc1ccc(Cl)cc1Cl)c1cnc(N2CCN(C3CCN(Cc4ccc(F)c(F)c4)CC3)CC2)c(Cl)c1 [compound 141]
25 to 100	O=C(NCc1ccc(F)c(Cl)c1)c1cnc(N2CCN(C3CCN(Cc4ccc(Br)cc4)CC3)CC2)c(Cl)c1 [compound 108]
< 25	C[C@H]1CN(c2ncc(C(=O)NCc3ccc(F)c(F)c3)cc2Cl)CCN1C1CCN(C(=O)c2ccc(C#N)cc2)CC1 [compound 248]
> 100	O=C(NCc1ccc(Br)cc1)c1cnc(N2CCN(C3CCN(Cc4ccc(Br)cc4F)CC3)CC2)c(Cl)c1 [compound 36]

IC50 [nM]	Compound
25 to 100	CCNC(=O)c1cnc(N2CCN(C3CCN(C(=O)c4ccc(C#N)cc4)CC3)[C@@H](CC)C2)c(Cl)c1 [compound 269]
> 100	N#Cc1ccc(CN2CCC(N3CCN(c4ncc(C(=O)NCc5ccc(C(F)(F)F)cc5)cc4Cl)CC3)CC2)cc1 [compound 336]
> 100	O=C(NCc1ccc(F)c(F)c1)c1cnc(N2CCN(C3CCN(Cc4ccccc4)CC3)CC2)c(Cl)c1 [compound 362]
< 25	C[C@H]1CN(c2ncc(C(=O)NCC3CCCCC3)cc2Br)CCN1C1CCN(Cc2ccc(Cl)cc2)CC1 [compound 225]
< 25	C[C@@H]1CN(c2ncc(C(=O)NCc3ccc(Cl)c(Cl)c3)cc2Cl)CCN1C1CCN(Cc2ccc(Cl)cc2)CC1 [compound 264]
25 to 100	O=C(NCc1ccc(Cl)cc1F)c1cnc(N2CCN(C3CCN(Cc4ccc([N+](=O)[O-])cc4)CC3)CC2)c(Cl)c1 [compound 155]
> 100	O=C(NCc1ccc(F)cc1F)c1cnc(N2CCN(C3CCN(Cc4ccc(Br)cc4)CC3)CC2)c(Cl)c1 [compound 79]
> 100	CCOC(CNC(=O)c1cnc(N2CCN(C3CCN(Cc4ccc(Cl)cc4)CC3)[C@@H](C)C2)c(Cl)c1)OCC [compound 340]
25 to 100	CC(NC(=O)c1cnc(N2CCN(C3CCN(Cc4ccc(Cl)cc4)CC3)CC2)c(Cl)c1)c1ccccc1 (stereo not shown) [compound 104]
< 25	CCNC(=O)c1cnc(N2CCN(C3CCN(Cc4ccc(Cl)cc4F)CC3)C(C3CC3)C2)c(Cl)c1 (stereo not shown) [compound 249]
> 100	CC[C@H]1CN(c2ncc(C(=O)NC)c3ccccc23)CCN1C1CCN(Cc2ccc(Cl)cc2F)CC1 [compound 363]
> 100	O=C(NCc1ccc(Cl)c(Cl)c1)c1cnc(N2CCN(C3CCN(Cc4ccc(Br)cc4F)CC3)CC2)c(Cl)c1 [compound 65]
> 100	COC(=O)c1ccc(N2C[C@H](C)N(C3CCN(Cc4ccc(Cl)cc4F)CC3)C[C@H]2C)nc1 [compound 456]
< 25	CC[C@H]1CN(c2ncc(C(=O)NC3CC3)cc2Cl)CCN1C1CCN(Cc2ccc(Cl)cc2F)CC1 [compound 215]
25 to 100	CC(NC(=O)c1cnc(N2CCN(C3CCN(Cc4ccc(Cl)cc4)CC3)CC2)c(Cl)c1)c1ccc(Cl)cc1 (stereo not shown) [compound 171]
> 100	C[C@H]1CN(c2ncc(C(=O)NCc3ccc(F)c(F)c3)cc2Cl)CCN1C1CCN(CCC(=O)c2ccc(Cl)cc2)CC1 [compound 327]
25 to 100	CCNC(=O)c1cnc(N2CCN(C3CCN(Cc4ccc(Cl)cc4F)CC3)C(CC(F)(F)F)C2)c(Cl)c1 (stereo not shown) [compound 275]
> 100	Cc1cc(C(=O)NCc2ccc(F)c(F)c2)cnc1N1CCN(C2CCN(Cc3ccc(Cl)cc3)CC2)CC1 [compound 200]
< 25	CC[C@H]1CN(c2ncc(C(=O)NC(C)C)cc2Cl)CCN1C1CCN(Cc2ccc(Cl)cc2)CC1 [compound 216]
25 to 100	CC[C@H]1CN(c2ncc(CNc3c(NC4CC4)c(=O)c3=O)cc2Cl)CCN1C1CCN(Cc2ccc(Br)cc2F)CC1 [compound 412]
> 100	COc1ccc(CN2CCC(N3CCN(c4ncc(C(=O)NCc5ccc(F)cc5F)cc4Cl)CC3)CC2)cc1 [compound 56]
25 to 100	COc1ccc(CN2CCC(N3CCN(c4ncc(C(=O)NCc5ccc(C(F)(F)F)cc5)cc4Br)CC3)CC2)cc1 [compound 322]

IC50 [nM]	Compound
> 100	CC[C@H]1CN(c2ncc(C(=O)NN)cc2Cl)CCN1C1CCN(C(=O)c2ccc(Br)cc2)CC1 [compound 342]
25 to 100	CC[C@H]1CN(c2cc(N)c(C(N)=O)cc2Cl)CCN1C1CCN(Cc2ccc(Cl)cc2F)CC1 [compound 315]
> 100	O=C(NCc1ccc(F)cc1F)c1cnc(N2CCN(C3CCN(Cc4ccc(Br)cc4F)CC3)CC2)c(Cl)c1 [compound 20]
> 100	O=C(NCc1ccc(Cl)c(Cl)c1)c1cnc(N2CCN(C3CCN(Cc4ccc(F)cc4F)CC3)CC2)c(Cl)c1 [compound 90]
25 to 100	O=C(NCc1ccc(Cl)cc1Cl)c1cnc(N2CCN(C3CCN(Cc4ccc(Cl)c(F)c4)CC3)CC2)c(Cl)c1 [compound 133]
< 25	CC[C@H]1CN(c2ncc(CNC3CC3)cc2Cl)CCN1C1CCN(Cc2ccc(Cl)cc2F)CC1 [compound 395]
25 to 100	O=C(NCC1CCCCC1)c1cnc(N2CCN(C3CCN(Cc4ccc(Cl)cc4)CC3)CC2)c(Cl)c1 [compound 184]
25 to 100	O=C(NCc1ccc(Cl)c(Cl)c1)c1cnc(N2CCN(C3CCN(Cc4ccc(Br)cc4)CC3)CC2)c(Cl)c1 [compound 289]
25 to 100	CC[C@H]1CN(c2ncc(CN)cc2Cl)CCN1C1CCN(Cc2ccc(Cl)cc2F)CC1 [compound 425]
< 25	CNC(=O)c1cnc(N2CCN(C3CCN(Cc4ccc(Br)cc4F)CC3)[C@@H](C)C2)c(Cl)c1 [compound 240]
25 to 100	C[C@H]1CN(c2ncc(C(N)=O)cc2Cl)CCN1C1CCN(Cc2ccc(Cl)cc2)CC1 [compound 281]
25 to 100	N#Cc1ccc(CN2CCC(N3CCN(c4ncc(C(=O)NCc5ccc(F)c(F)c5)cc4Br)CC3)CC2)cc1 [compound 277]
> 100	COCCNC(=O)c1cnc(N2CCN(C3CCN(Cc4ccc(Cl)cc4)CC3)[C@@H](CC(C)C)C2)c(Cl)c1 [compound 195]
25 to 100	CC[C@H]1CN(c2ncc(C(C)=O)cc2Cl)CCN1C1CCN(Cc2ccc(Cl)cc2F)CC1 [compound 427]
> 100	O=C(NCc1cccc(F)c1)c1cnc(N2CCN(C3CCN(Cc4ccc(Cl)cc4Cl)CC3)CC2)c(Cl)c1 [compound 1]
< 25	C[C@H]1CN(c2ncc(C(=O)NCc3ccc(Cl)c(Cl)c3)cc2Cl)CCN1C1CCN(Cc2ccc(C#N)cc2)CC1 [compound 230]
25 to 100	N#Cc1ccc(C(=O)N2CCC(N3CCN(c4ncc(C(=O)NCc5ccc(F)c(F)c5)cc4Br)CC3)CC2)cc1 [compound 298]
> 100	CC(C)CNC(=O)c1cnc(N2CCN(C3CCN(Cc4ccc(Cl)cc4)CC3)CC2)c(Cl)c1 [compound 181]
< 25	CC[C@H]1CN(c2ncc(CNC(=O)NC3CC3)cc2Cl)CCN1C1CCN(Cc2ccc(Br)cc2F)CC1 [compound 367]
25 to 100	O=C(NCc1ccc(F)cc1)c1cnc(N2CCN(C3CCN(Cc4ccc(F)c(F)c4)CC3)CC2)c(Cl)c1 [compound 106]
